The source of these data is ChEMBL document CHEMBL5223142, “Identification of potent and selective inhibitors of PKR via virtual screening and traditional design” (Bioorg Med Chem Lett, 2023).

Experiment [1] has as its target T1, Interferon-induced, double-stranded RNA-activated protein kinase (Homo sapiens, UniProt P19525). Put plainly: Inhibition of PKR (unknown origin).
The target in experiment [2] is T1, Interferon-induced, double-stranded RNA-activated protein kinase. Put plainly: Inhibition of GST tagged human PKR incubated for 10 mins in presence of ATP by Kinase Glo luminescence assay.

T1 sequence (P19525 whole entry): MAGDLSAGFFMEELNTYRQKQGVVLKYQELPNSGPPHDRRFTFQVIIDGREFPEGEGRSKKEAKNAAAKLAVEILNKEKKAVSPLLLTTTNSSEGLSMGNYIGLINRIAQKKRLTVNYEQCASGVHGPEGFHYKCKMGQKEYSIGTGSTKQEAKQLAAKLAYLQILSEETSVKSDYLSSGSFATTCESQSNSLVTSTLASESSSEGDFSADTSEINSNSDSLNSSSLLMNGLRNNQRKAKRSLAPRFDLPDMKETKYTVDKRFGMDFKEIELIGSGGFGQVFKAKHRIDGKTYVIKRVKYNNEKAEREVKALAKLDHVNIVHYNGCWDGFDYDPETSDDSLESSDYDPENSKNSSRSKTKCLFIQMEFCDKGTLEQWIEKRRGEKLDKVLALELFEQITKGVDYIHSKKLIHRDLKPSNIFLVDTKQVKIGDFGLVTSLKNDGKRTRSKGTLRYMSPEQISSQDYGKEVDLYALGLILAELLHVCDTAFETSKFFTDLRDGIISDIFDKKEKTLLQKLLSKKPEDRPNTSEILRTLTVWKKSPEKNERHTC

One may read the IC50 as the midpoint of a concentration-inhibition curve. In the case of `CCn1cc(-c2ccc3c(c2)CCN3C(=O)Cc2cccc(OC(F)(F)F)c2)c2c(N)ncnc21`, the IC50 in experiment [1] worked out at 116 nM.
The same measure, in the same setting: with `COCCO[C@H]1CC[C@H](n2nc(-c3ccc(Nc4nc5cc(Cl)cc(F)c5o4)cc3)c3c(N)ncnc32)CC1` the figure was 364 nM.
For `Nc1ncc(-c2nnn(CCCO)n2)cc1-c1cc2cc(NC(=O)Nc3ccc(Cl)c(C(F)(F)F)c3)ccc2o1`, the IC50 in experiment [2] was determined as 475 nM.
`CC(=O)Cn1cc(-c2cnc(N)c3c(-c4ccc(NC(=O)Nc5cccc(C)c5)cc4)csc23)cn1` registered an IC50 in experiment [1] of 306 nM.
For orientation: EC50 means the concentration giving half of the maximal effect. High values mean a less potent agent, low ones a more potent agent. `CCc1ccc(OC(F)(F)F)cc1CC(=O)N1CCc2cc(-c3cn(CC)c4ncnc(N)c34)ccc21` registered an EC50 in experiment [1] of 37 nM.
In experiment [1], `O=C(Nc1cc(-c2ccccc2)[nH]n1)c1ccc(N2CCNC2=O)cc1` returned an IC50 of 3880 nM.
In experiment [1], `CCc1ccc(OC(F)(F)F)cc1CC(=O)N1CCc2cc(-c3nn(CC)c4ncnc(N)c34)ccc21` came in with an EC50 of 95 nM.
